Patent publication US4288449A, “N-Arylsulfonylpyrroles, their preparation, and therapeutic agents containing these compounds” (BASF Aktiengesellschaft, priority 1978, dated 1981)

Key:
[1] = Diuretic action after oral administration (excretion of electrolyte and of water); assay type: in vivo, dog (male beagles); conditions: for Excretion of electrolyte: Na^+ / Na^+/K^+ quotient / Excretion of water: H2 O / Excretion of electrolyte: K^+ / Excretion of electrolyte: Cl^- / times more active than Furosemid / Na^+ excretion between the 2nd and 6th hours after administration: dog, oral; for Excretion of electrolyte: Na^+: dose mg/kg: 9 0.464, 15 0.215, 114 0.1, 116 0.1, 120 0.215, Furosemid 1.0; for Na^+/K^+ quotient: control 1.0; for times more active than Furosemid: by doses giving Na^+ and H2 O excretion similar to Furosemid; for Na^+ excretion between the 2nd and 6th hours after administration / diuretic action: in words
Experimental: The diuretic action was determined on male beagles weighing from 10 to 15 kg.
The animals are kept without food for 18 hours before starting the experiment. 2 hours before administration of the test substance, they are given 20 ml/kg of water orally. The test substances are administered orally as a tragacanth suspension. Thereafter, 4 ml/kg of water are administered 6 times at intervals of 1 hour.
Urine samples are taken by catheterization at intervals of 2 hours, over a period of 6 hours. […]

in vivo = conditions: mouse, po
Experimental: To determine the acute toxicity, the substances are administered orally to groups of 10 female mice of the NMRI strain, weighing from 20 to 23 g. The mean lethal dose (LD 50) is determined after a period of observation of 72 hours.

[2] = 2 hours, doses as E1, control 9,3
[3] = 2 hours, doses as E1, control 67
[4] = 2 hours, doses as E1, control 81
[5] = 6 hours, doses as E6, control 27
[6] = 6 hours, doses as E6, control 184
[7] = 6 hours, doses as E6, control 238

SMILES	Excretion of electrolyte: Na^+ ([1]; 2 hours, control 66)	Na^+/K^+ quotient ([1]; 2 hours, doses as E1)	Excretion of water: H2 O [1, 2] [mL/kg]	Excretion of electrolyte: K^+ [1, 3] [μval/kg]	Excretion of electrolyte: Cl^- [1, 4]	Excretion of electrolyte: Na^+ ([1]; 6 hours, control 212)	Excretion of water: H2 O [1, 5] [mL/kg]	Excretion of electrolyte: K^+ [1, 6] [μval/kg]	Excretion of electrolyte: Cl^- [1, 7]	times more active than Furosemid [1] [times]	LD50 at 72 h (in vivo) [mg/kg]	selectivity ratio (in vivo)	Na^+ excretion between the 2nd and 6th hours after administration [1]	diuretic action [1]
CCc1ccc(C)n1S(=O)(=O)c1cc(C(=O)O)cc(NCc2ccsc2)c1Oc1ccccc1 [Example 116]	1,150 μval/kg	4.2	22	271	1,510 μval/kg	1,560 μval/kg	40	473	2,100 μval/kg	10	> 2150	> 21500	–	–
NS(=O)(=O)c1cc(C(=O)O)c(NCc2ccco2)cc1Cl [Furosemid, 4-chloro-N-(2-furylmethyl)-5-sulfamylanthranilic acid, reference compound]	–	3.1	–	–	–	–	–	–	–	–	–	–	–	–
O=C(O)c1cc(NCc2ccccc2)c(Oc2ccccc2)c(S(=O)(=O)n2cccc2)c1 [Example 9]	1,520 μval/kg	5.1	27	298	1,940 μval/kg	2930 µval/kg	56	810	4,200 μval/kg	2.2	957	2060	a distinct further increase in excretion	not only better action, but also longer-lasting action, than Furosemid
Cc1ccc(C)n1S(=O)(=O)c1cc(C(=O)O)cc(NCc2ccsc2)c1Nc1ccccc1 [Example 120]	1260 µval/kg	5.6	19	227	1,600 μval/kg	2,050 μval/kg	41	527	2,760 μval/kg	–	> 2150	> 10000	–	–
O=C(O)c1cc(NCc2ccsc2)c(Oc2ccccc2)c(S(=O)(=O)n2cccc2)c1 [Example 15]	1,240 μval/kg	3.7	23	333	1,520 μval/kg	1,940 μval/kg	45	642	2,440 μval/kg	–	1470	6840	a distinct further increase in excretion	not only better action, but also longer-lasting action, than Furosemid
CCc1ccc(CC)n1S(=O)(=O)c1cc(C(=O)O)cc(NCc2ccsc2)c1Oc1ccccc1 [Example 114]	1410 µval/kg	4.8	26	295	1,780 μval/kg	1,640 μval/kg	42	442	2,080 μval/kg	10	> 2150	> 21500	–	–
